One series is described as follows: in vitro. The settings on record: human; for remaining at 2 h, 50 μM: % remaining (parent compound). As to the method:
Given that our goal was to obtain metabolically stable scaffolds, we selected 9 and 23 as representatives of each series for metabolic stability studies using human liver microsomes (HLMs). In parallel, we interrogated the quality of 1H-benzo[d]imidazole derivatives by confronting them head-to-head with the comparator drug alpidem.
The in vitro evaluation of the metabolic stability of the selected compound was performed using human liver microsomes (HLMs) (Sigma-Aldrich, St. Louis, MO, USA) as described previously.[25] The reaction mixture contained 50 μM of tested molecules HLMs (1 mg/mL) in 10 mM tris–HCl buffer. Following 5 min of preincubation, 50 μL of the NADPH Regeneration System (Promega, Madison, WI, USA) was added to induce the reaction. Next, the resulting reaction mixture was incubated at 37 °C for 120 min. The reaction was quenched with the addition of 200 μL of cold extra pure methanol and then centrifuged at 14,000 rpm for 15 min. The resulting supernatant was analyzed using an LC/MS Waters ACQUITY TQD system (Waters, Milford, USA).

The subject of series [1] is HepG2 human hepatoma cells. Briefly: Hepatotoxicity assay: cell viability (PrestoBlue) and cell membrane damage (ToxiLight). The format is cell-based. The note with it: 24 h treatment; for cytotoxic effect in HepG2 cells: concentrations up to 50 μM. As to the method: (§1) Given that drug-induced liver injury (DILI) is the leading cause of the termination of potential drug candidates,[21],[22] two of the main molecules 9 and 23 were further assayed in HepG2 human hepatoma cells to assess their potential risk of toxicity.[23] The hepatotoxicity of the compounds tested was evaluated using two methods: cell viability (Figure 8A,B) and mitochondrial membrane potential assay (Figure 8C).
(§2) Figure 8 Hepatotoxicity assays for selected lead molecules. Cell viability (A) was measured using the PrestoBlue reagent, cell membrane damage (B) was assessed using the ToxiLight bioassay, and mitochondrial membrane potential (C) was assessed using a JC-1 probe. Assays performed after 24 h treatment with tested compounds and a reference alpidem. Results are presented as mean % of untreated controls ± S.D. (n = 3). Differences among groups were evaluated by one-way ANOVA followed by post-hoc analysis (Dunnett’s multiple comparison tests) and were considered statistically significant if p < 0.05 (****p < 0.0001, ***p < 0.001, **p < 0.01, and *p < 0.05). […]
(§3) Cell viability was measured using the PrestoBlue reagent (Thermo Fisher). […] Metabolically active cells are capable of reducing the PrestoBlue reagent, with the colorimetric changes used as an indicator to quantify the viability of cells in culture. This change can be determined by measuring the fluorescence. […] After 30 min of incubation at 37 °C, the fluorescence intensity (EX 530; EM 580 nm) was measured by using a multifunction plate reader (POLARstar Omega, BMG Labtech, Germany). Viability values were calculated as a percentage of live cells with respect to the control sample. Cell membrane damage was measured using the bioluminescent ToxiLight bioassay (Lonza). It quantitatively measures the release of adenylate kinase (AK) from the membranes of damaged cells. […] The enzyme actively phosphorylates ADP, and the resultant ATP is then measured using the bioluminescent firefly luciferase reaction with the ToxiLight reagent. […]

The test system of series [2] is HepG2 human hepatoma cells. Briefly: Hepatotoxicity assay: mitochondrial membrane potential (JC-1 probe). The note with it: 100 μM, 24 h treatment. The format is cell-based. As to the method: as §1, §2, §3
Series [3] concerns the target GABA-A receptor (benzodiazepine site, α1/γ2 interface). Briefly: Radioligand binding assay for the GABA-A receptor ([3H]-flunitrazepam displacement, rat brain homogenate). The note with it: pKi = -log Ki, n.a. = no affinity.
Series [4] has as its target T1, α1β2γ2-GABA-A receptors stably expressed in HEK293 cells (Homo sapiens, UniProt P14867+P18507).
T1 construct: expressed in transfected cells
Briefly: Electrophysiological studies, automated patch clamp (QPatch16X), positive allosteric modulation of GABA-induced Cl- currents. In kind it is cell-based. The note with it: compound 1 μM co-applied with 10 μM GABA; GABA alone = 100%; mean ± SEM. As to the method:
Given that ligands binding within the α1/γ2 interface act as PAMs, we selected the most promising 1H-benzo[d]imidazoles (9, 15, 16, 23, and 29) for electrophysiological studies using automated patch clamp recordings (QPatch16X, Sophion). We expected that 1H-benzo[d]imidazoles would potentiate GABA-induced Cl^– currents rather than inducing ion passage alone.
Electrophysiology studies were performed using the QPatch16X automatic patch clamp platform (Sophion Biosciences) and HEK293 cells, stably expressing the α1β2γ2 subunits of the human GABA-A receptor. Prior to the assay recordings, the cells were transferred from the culture flask through a TrypLE Express solution (LifeTechnologies) and resuspended in serum-free media. The cells were placed in the lidless microtube, located onboard the automated electrophysiology instrument. The cells were then automatically relocated to a built-in centrifuge, spun down, and washed in Ringer’s extracellular solution. The cells were transferred to the pipetting wells of a single-use 16-channel planar patch chip plate (QPlate 16X), and gigaseals were formed upon implementation of a combined suction/voltage protocol. Subsequent suction induced whole-cell configuration. The chloride currents passed via the GABA-A receptor were recorded for 7 s after single addition of a tested molecule. Through whole-cell recording, the holding potential was set to −90 mV. The assay was performed at room temperature. The extracellular solution was composed of the following ingredients: consisted of 2 mM […], 145 mM NaCl, 10 mM HEPES, CaCl2, 1 mM MgCl2, 10 mM glucose (pH 7.4, 300 mOsm), and intracellular solution contained 140 mM CsF, 1 mM EGTA, 5 mM CsOH, 10 mM HEPES, and 20 mMNaCl (pH 7.2, 320 mOsm). The screening assays were established in the instrument software by sequential application of 10 μM GABA (reference agonist AG1), 1 μM examined molecule compounds, and compounds co-administered with 10 μM GABA (T2); second addition of 10 μM GABA (AG2); 10 μM bicuculline (reference antagonist) along with 10 μM GABA (ATG). The intermission among the addition of particular molecules was 60 s. In a typical procedure, 5 μL of ligand was added to the cells, followed by 3 s of washout with an extracellular solution (two times […]). For the allosteric modulator/antagonist mode, the cells were preincubated with the tested compound alone for 50 s, followed by the addition of the reference agonist. The data obtained were processed using QPatch Assay Software (v5.0, Sophion Biosciences) and are represented as the mean of at least three independent experiments performed on separate cells. The validation criteria for a single test were current amplitude evoked by adding GABA greater than 500 pA and a change between cells’ response to GABA applications (AG1 and AG2) not greater than 25%. The relative compound efficiency was analyzed as the baseline-corrected ratio of maximal current amplitudes induced by the addition of tested compounds and reference agonist (T1-ATG/AG1-ATG or T2-ATG/AG1-ATG). The obtained raw current recordings were normalized and represented as % of the current amplitude induced by a reference agonist (GABA = 100%) using the QPatch Assay Software (v5.0, Sophion Biosciences).[24]
(In patch-clamp work, channel activity is measured electrically.)

Series [5] in a line: Thermodynamic solubility in phosphate buffer pH = 7.4. The format is physicochemical. The note with it: phosphate buffer (Dulbecco's phosphate-buffered saline), aqueous buffer, thermodynamic from solid, phosphate buffer pH = 7.4, 20 °C.
Description: Quantitative HPLC analyses were performed on a Waters Alliance e2695 Separations Module (Waters, Milford, CT, USA) with a detector 2998 Photodiode Array (PDA) detector (Waters, Milford, CT, USA) and the Chromolithe SpeedROD RP-18e 50–4.6 mm column (Merck, KGaA, Darmstadt, Germany). The column was kept at 30 °C. The conditions applied are as follows: eluent A (water/0.1% formic acid), eluent B (MeCN/0.1% formic acid), a flow rate of ,5 mL/min, a gradient of 0–100% B over 3 min, and an injection volume of 10 μL. Each sample was injected in triplicate. […] Standard solutions of the tested compounds and the reference compound were prepared in methanol at a concentration of 1 mg/mL. […] Next, 2 mg of the compound tested was dissolved in 1 mL of Dulbecco’s phosphate-buffered saline (DPBS), and the mixture was constantly agitated at 20 °C for 24 h in a thermoshaker. After that time, the mixtures were filtered through a cellulose acetate syringe filter (pore size 0.22 μm) and transferred to a chromatographic vial and analyzed using HPLC. For quantification, areas under the peaks of the investigated compounds on DAD chromatograms were used. Solubility was determined using the calibration curves.

≈ marks a conversion by molar mass, not a printed value.

T1 sequence (P14867 28-456): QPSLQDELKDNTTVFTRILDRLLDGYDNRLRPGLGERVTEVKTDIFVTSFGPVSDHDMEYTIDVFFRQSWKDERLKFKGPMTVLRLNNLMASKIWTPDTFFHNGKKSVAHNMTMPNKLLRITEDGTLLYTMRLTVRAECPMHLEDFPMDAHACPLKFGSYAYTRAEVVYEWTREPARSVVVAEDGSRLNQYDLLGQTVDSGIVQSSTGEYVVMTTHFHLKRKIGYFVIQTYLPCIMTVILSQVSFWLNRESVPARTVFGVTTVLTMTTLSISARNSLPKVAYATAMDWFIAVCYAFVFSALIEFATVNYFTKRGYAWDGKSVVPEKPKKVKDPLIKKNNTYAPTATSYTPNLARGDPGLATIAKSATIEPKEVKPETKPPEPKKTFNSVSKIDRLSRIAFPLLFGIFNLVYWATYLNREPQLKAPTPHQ
T1 sequence (P47870 25-512 partner limits assumed): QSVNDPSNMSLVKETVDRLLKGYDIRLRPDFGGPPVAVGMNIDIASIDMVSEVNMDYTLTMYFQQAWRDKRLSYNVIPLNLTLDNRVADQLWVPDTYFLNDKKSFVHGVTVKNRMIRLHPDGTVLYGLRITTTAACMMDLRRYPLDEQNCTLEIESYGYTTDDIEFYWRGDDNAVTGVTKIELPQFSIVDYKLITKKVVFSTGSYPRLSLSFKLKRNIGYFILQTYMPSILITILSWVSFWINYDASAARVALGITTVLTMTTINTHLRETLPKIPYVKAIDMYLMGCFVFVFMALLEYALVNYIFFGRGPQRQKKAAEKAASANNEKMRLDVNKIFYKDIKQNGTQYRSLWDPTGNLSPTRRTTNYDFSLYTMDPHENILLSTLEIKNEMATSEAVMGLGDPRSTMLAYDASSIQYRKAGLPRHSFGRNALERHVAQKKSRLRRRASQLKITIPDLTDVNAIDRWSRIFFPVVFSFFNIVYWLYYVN
T1 sequence (P18507 40-475): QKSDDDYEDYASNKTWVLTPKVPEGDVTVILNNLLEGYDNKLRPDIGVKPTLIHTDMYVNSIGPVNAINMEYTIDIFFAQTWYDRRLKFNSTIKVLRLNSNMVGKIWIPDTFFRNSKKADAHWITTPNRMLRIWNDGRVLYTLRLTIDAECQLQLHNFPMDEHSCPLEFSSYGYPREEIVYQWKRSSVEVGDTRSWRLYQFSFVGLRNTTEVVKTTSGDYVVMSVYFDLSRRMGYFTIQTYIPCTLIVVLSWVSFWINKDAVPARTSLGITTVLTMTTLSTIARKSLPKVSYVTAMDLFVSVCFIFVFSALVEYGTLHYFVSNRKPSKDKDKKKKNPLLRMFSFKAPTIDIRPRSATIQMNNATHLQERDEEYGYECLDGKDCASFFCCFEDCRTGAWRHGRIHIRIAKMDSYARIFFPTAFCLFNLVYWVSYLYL

With `CCCN(CCC)C(=O)Cc1c(-c2ccc(Cl)cc2)nc2ccc(Cl)cn12` [alpidem, reference compound], in “in vitro” (microsomes), the amount remaining (commonly what is left of the initial amount, in per cent) at 2 h, 50 μM came out at 38.6%. The “hepatotoxicity in HepG2 cells” value in series [1] (at 100 and 50 μM) was “noticeable hepatotoxicity”. Besides, in series [2], the “mitochondrial membrane potential (MMP) of HepG2 cells” value (“mitochondrial membrane potential” for short) is “induced mitochondrial dysfunction”.
As to `NC(=O)c1cccc(NC(=O)Cn2c(-c3ccc(F)cc3)nc3ccccc32)c1` [Compound 23, 3-(2-(2-(4-Fluorophenyl)-1H-benzo[d]imidazole-1-yl)acetamido)benzamide], in series [3], the “pKi GABA-A” value stood at 6.05. In series [4], the “% of 10 μM GABA response” value is on record as 132 ± 13,2%. In series [5], the solubility (usually the dissolved amount per volume that the medium holds) at 24 h was found to be 74 ± 0.81 µg/mL (≈ 191 µM). Also, in the series “in vitro” (120 min, 50 μM), the “formation of hydroxylated metabolite (M1)” value is 10.87%. In addition, the share remaining at 2 h, 50 μM in the series “in vitro” (microsomes) came to 89.1%. Also, the “cytotoxic effect in HepG2 cells” value in series [1] is given as “did not induce any significant cytotoxic effect”. Besides, the “mitochondrial membrane potential” value in series [2] was “did not observe mitochondrial membrane potential (MMP) attenuation”.
On to `Cc1ccc2nc(-c3ccc(F)cc3)n(CC(=O)N3CCCC3)c2c1` [Compound 9, 2-(2-(4-Fluorophenyl)-6-methyl-1H-benzo[d]imidazole-1-yl)-1-(pyrrolidin-1-yl)ethan-1-one], for which the “pKi GABA-A” value in series [3] is 5.5. Besides, the “% of 10 μM GABA response” value in series [4] is reported as 172 ± 12,5%. The solubility at 24 h in series [5] turned out to be 50 ± 0.54 µg/mL (≈ 148 µM). The “% remaining (parent compound)” value in the series “in vitro” (microsomes, 2 h, 50 μM) came out at 90.12%. For the same molecule, the share remaining at 2 h, 50 μM in “in vitro” (microsomes) is 90%. Besides, the “cytotoxic effect in HepG2 cells” value in series [1] is “did not induce any significant cytotoxic effect”. In addition, the “mitochondrial membrane potential” value in series [2] is on record as “did not observe mitochondrial membrane potential (MMP) attenuation”.
